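Results reflect a 48-hour exposure of cells in 96-well plates to compound at five concentrations. Here, GI50 denotes the concentration required for 50% inhibition of growth.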 Activity calls are given as the source filed them. No stated cut-off is given here; in the data, active = GI50 up to about 1.1 µM and inactive = higher.
Experiments:
Assay in all cases: growth of human tumour cells (NCI), 48 h
MCF7 = system: MCF7
BT-549 = system: BT-549
SK-MEL-5 = system: SK-MEL-5
786-0 = system: 786-0
SN12C = system: SN12C
SK-MEL-2 = system: SK-MEL-2
OVCAR-5 = system: OVCAR-5
TK-10 = system: TK-10
KM12 = system: KM12
UACC-257 = system: UACC-257
OVCAR-8 = system: OVCAR-8
COLO 205 = system: COLO 205
T47D = system: T47D
SNB-75 = system: SNB-75
HCT-116 = system: HCT-116
SW-620 = system: SW-620
SF-268 = system: SF-268
LOX IMVI = system: LOX IMVI
RXF 393 = system: RXF 393
OVCAR-4 = system: OVCAR-4
PC-3 = system: PC-3
OVCAR-3 = system: OVCAR-3
CAKI-1 = system: CAKI-1
HT-29 = system: HT-29
NCI-H522 = system: NCI-H522
RPMI-8226 = system: RPMI-8226
NCI-H23 = system: NCI-H23
MOLT-4 = system: MOLT-4
MDA-MB-435 = system: MDA-MB-435
SK-MEL-28 = system: SK-MEL-28
A498 = system: A498
ACHN = system: ACHN
A549 = system: A549
HOP-92 = system: HOP-92
DU-145 = system: DU-145
UACC-62 = system: UACC-62
SNB-19 = system: SNB-19
MDA-MB-231 = system: MDA-MB-231
NCI/ADR-RES = system: NCI/ADR-RES
EKVX = system: EKVX
IGROV-1 = system: IGROV-1
Malme-3M = system: Malme-3M
HOP-62 = system: HOP-62
NCI-H226 = system: NCI-H226
SF-295 = system: SF-295
UO-31 = system: UO-31
K562 = system: K562
M14 = system: M14
SR = system: SR
U-251 = system: U-251
HCT-15 = system: HCT-15
MDA-N = system: MDA-N
Hs-578T = system: Hs-578T
SF-539 = system: SF-539
NCI-H460 = system: NCI-H460
HCC 2998 = system: HCC 2998
HL-60 = system: HL-60
CCRF-CEM = system: CCRF-CEM
SK-OV-3 = system: SK-OV-3

Measured: GI50

c1ccc(C(CCN2CC3CCC(CC3)C2)c2ccccc2)cc1
inactive: MCF7 15.6 µM | BT-549 42.2 µM | SK-MEL-5 16.5 µM | 786-0 17.3 µM | SN12C 26.4 µM | SK-MEL-2 20.5 µM | OVCAR-5 20.1 µM | TK-10 23.1 µM | KM12 23.9 µM | UACC-257 16.2 µM | OVCAR-8 28.6 µM | COLO 205 12.6 µM | T47D 20 µM | SNB-75 24.2 µM | HCT-116 20.1 µM | SW-620 29.9 µM | SF-268 25.6 µM | LOX IMVI 16.9 µM | RXF 393 18.8 µM | OVCAR-4 38.7 µM | PC-3 31.5 µM | OVCAR-3 20.2 µM | CAKI-1 37.9 µM | HT-29 13.9 µM | NCI-H522 16.6 µM | RPMI-8226 16.8 µM | NCI-H23 18 µM | MOLT-4 18.2 µM | MDA-MB-435 25.1 µM | SK-MEL-28 41.1 µM | A498 15.6 µM | ACHN 22.8 µM | A549 31.2 µM | HOP-92 22.9 µM | DU-145 38.4 µM | UACC-62 17.1 µM | SNB-19 34.4 µM | MDA-MB-231 18.9 µM | NCI/ADR-RES 23.8 µM | EKVX 37.8 µM | IGROV-1 31 µM | Malme-3M 16.3 µM | HOP-62 27.5 µM | NCI-H226 19.6 µM | SF-295 26 µM | UO-31 14.9 µM | K562 18.4 µM | M14 14.3 µM | SR 19.7 µM | U-251 18.2 µM | MDA-N 23 µM | Hs-578T 24 µM | SF-539 16 µM | NCI-H460 15 µM
21.8 µM: HCT-15

C[C@@H](CC(=O)O)OC1OC(COC(=O)C(C)(C)C)C(OC(=O)C(C)(C)C)C(OC(=O)C(C)(C)C)C1OC(=O)C(C)(C)C (some centres undefined)
inactive: MCF7 41.2 µM | BT-549 57 µM | SK-MEL-5 29.6 µM | 786-0 66.2 µM | SN12C 48.2 µM | HCC 2998 35 µM | SK-MEL-2 49 µM | OVCAR-5 > 100 µM | TK-10 99.3 µM | KM12 45.7 µM | UACC-257 > 100 µM | OVCAR-8 81.7 µM | COLO 205 32.8 µM | T47D 45.9 µM | SNB-75 72.8 µM | HCT-116 47.5 µM | SW-620 45.4 µM | SF-268 50.7 µM | LOX IMVI 97.3 µM | RXF 393 45.3 µM | PC-3 46.9 µM | OVCAR-3 64.7 µM | CAKI-1 62.2 µM | HT-29 39 µM | NCI-H522 57 µM | HL-60 21.9 µM | RPMI-8226 26.4 µM | NCI-H23 27.2 µM | MOLT-4 38.6 µM | MDA-MB-435 53.3 µM | SK-MEL-28 89.7 µM | A498 > 100 µM | ACHN 22.6 µM | CCRF-CEM 26.5 µM | A549 45 µM | HOP-92 38.1 µM | DU-145 59.6 µM | UACC-62 71.9 µM | SK-OV-3 73.6 µM | SNB-19 28.2 µM | MDA-MB-231 > 100 µM | NCI/ADR-RES > 100 µM | EKVX 93.5 µM | IGROV-1 72.3 µM | HOP-62 > 100 µM | NCI-H226 > 100 µM | SF-295 50.5 µM | UO-31 > 10 µM | K562 34.4 µM | M14 > 100 µM | U-251 40 µM | MDA-N 69.7 µM | Hs-578T 58.7 µM | SF-539 52.8 µM | NCI-H460 29 µM
32.4 µM: HCT-15

NC1=CN(CCCO)C2=N/C(=C\c3ccccc3)C(=O)N12
inactive: MCF7 > 100 µM | BT-549 > 100 µM | SK-MEL-5 > 100 µM | 786-0 > 100 µM | SN12C > 100 µM | HCC 2998 > 100 µM | SK-MEL-2 > 100 µM | OVCAR-5 > 100 µM | TK-10 > 100 µM | KM12 > 100 µM | UACC-257 > 100 µM | OVCAR-8 > 100 µM | COLO 205 > 100 µM | T47D > 100 µM | SNB-75 > 100 µM | HCT-116 > 100 µM | SW-620 > 100 µM | SF-268 > 100 µM | LOX IMVI > 100 µM | RXF 393 > 100 µM | OVCAR-4 > 100 µM | PC-3 > 100 µM | OVCAR-3 > 100 µM | CAKI-1 > 100 µM | HT-29 > 100 µM | NCI-H522 80.4 µM | HL-60 42.9 µM | RPMI-8226 83.4 µM | NCI-H23 > 100 µM | MOLT-4 > 100 µM | MDA-MB-435 > 100 µM | SK-MEL-28 > 100 µM | A498 85.7 µM | ACHN > 100 µM | CCRF-CEM > 100 µM | A549 > 100 µM | HOP-92 > 100 µM | DU-145 > 100 µM | UACC-62 > 100 µM | SK-OV-3 > 100 µM | SNB-19 > 100 µM | MDA-MB-231 > 100 µM | NCI/ADR-RES > 100 µM | EKVX 69.5 µM | IGROV-1 > 100 µM | Malme-3M > 100 µM | HOP-62 > 100 µM | NCI-H226 > 100 µM | SF-295 > 100 µM | UO-31 > 100 µM | K562 > 100 µM | M14 > 100 µM | U-251 > 100 µM | MDA-N > 100 µM | Hs-578T 86.3 µM | SF-539 > 100 µM | NCI-H460 > 100 µM
> 100 µM: HCT-15
